Source: patent publication US9622977B2, “Sustained release drug delivery system” (BIOPLUS LIFE SCIENCES PVT, LTD., priority 2008, dated 2017)
Like-named read-outs stand apart in the source and are kept apart here.

Tests used:
[1] = rat; for % Dose recovered: 6-CF, oral
[2] = Acyclovir IR 400 mg single dose; From Ref. 35; cited from earlier work
[3] = oral; cited from earlier work
[4] = in vivo; settings: Sprague-Dawley, rat, po
Protocol: Rats were kept on fasting 12 hours before drug administration and until 24 hours post dosing. Water ad libitum was given throughout the study. […] Second, third, fourth, fifth and sixth group received oral administration of chitosan, thiolated chitosan, trimethyl chitosan, CARBOPOL® or METHOCEL® microspheres, respectively. […] Supernatant was collected and acetonitrile was added to precipitate the proteins. The precipitated proteins were settled by centrifugation at 2000 rpm for 15 min. The supernatant was collected and filtered through a 0.45 μm filter into volumetric flask and drug concentration was determined by spectrofluorometric assay.

[5] = In vitro drug release study of microspheres (USP paddle); type: physicochemical; settings: HCl buffer pH 1.2, first hr
Protocol: 900 ml of HCl buffer (pH 1.2) was used as dissolution medium for first hr and phosphate buffered saline (PBS, pH 6.8) was used for next 11 hrs. The dried microspheres were filled in hard gelatin capsules and were placed in dissolution vessels. 5 ml sample was withdrawn at various time intervals and volume of the media was replenished with an equal amount of dissolution media. The samples were then analyzed spectroflurometrically.

[6] = tested on: Erythrocytes; experiment: Hemolytic toxicity assay; type: cell-based; settings: 1 hr of incubation at 37°C, water = 100%
Protocol: The procedure from literature was followed to perform the hemolytic toxicity studies.^19 Blood from healthy donors was collected and anticogulated with 3% sodium citrate. Erythrocytes were separated from blood plasma by centrifugation (3000×g, 5 min) and suspended in phosphate buffer saline (PBS) of pH 7.4. […] 0.5 ml 2% w/v dispersion of microspheres formulations in PBS (pH 7.4) was added to 4.5 ml of normal saline and interacted with 1 ml RBC suspension. […] After 1 hr, mixture was centrifuged and supernatants were taken and diluted with an equal volume of normal saline and absorbance was taken at 540 nm against supernatant of normal saline diluted similarly as blank. The percentage hemolysis was thus determined for each sample by taking absorbance of water as 100% hemolytic sample.

## O=C(O)c1ccc2c(c1)C1(OC2=O)c2ccc(O)cc2Oc2cc(O)ccc21 [6-CF solution, 6-Carboxyfluorescein]
[1]; 1. Stomach, 2 hr
  % Dose recovered: 52.2%
[1]; 1. Stomach, 6 hr
  % Dose recovered: 0%
[1]; 1. Stomach, 8 hr
  % Dose recovered: 0%
[1]; 1. Stomach, 10 hr
  % Dose recovered: 0%
[1]; 2. Duodenum, 2 hr
  % Dose recovered: 10.9%
[1]; 2. Duodenum, 4 hr
  % Dose recovered: 19.5%
[1]; 2. Duodenum, 6 hr
  % Dose recovered: 0%
[1]; 2. Duodenum, 8 hr
  % Dose recovered: 0%
[1]; 2. Duodenum, 10 hr
  % Dose recovered: 0%
[1]; 3. Jejunum, 2 hr
  % Dose recovered: 0%
[1]; 3. Jejunum, 4 hr
  % Dose recovered: 10.6%
[1]; 3. Jejunum, 6 hr
  % Dose recovered: 0%
[1]; 3. Jejunum, 8 hr
  % Dose recovered: 0%
[1]; 3. Jejunum, 10 hr
  % Dose recovered: 0%
[1]; 4. Jejunum, 2 hr
  % Dose recovered: 0%
[1]; 4. Jejunum, 4 hr
  % Dose recovered: 5.8%
[1]; 4. Jejunum, 6 hr
  % Dose recovered: 6.9%
[1]; 4. Jejunum, 8 hr
  % Dose recovered: 0%
[1]; 4. Jejunum, 10 hr
  % Dose recovered: 0%
[1]; 5. Jejunum, 2 hr
  % Dose recovered: 0%
[1]; 5. Jejunum, 4 hr
  % Dose recovered: 0%
[1]; 5. Jejunum, 6 hr
  % Dose recovered: 3.9%
[1]; 5. Jejunum, 8 hr
  % Dose recovered: 0%
[1]; 5. Jejunum, 10 hr
  % Dose recovered: 0%
[1]; 6. Ileum, 2 hr
  % Dose recovered: 0%
[1]; 6. Ileum, 4 hr
  % Dose recovered: 0%
[1]; 6. Ileum, 6 hr
  % Dose recovered: 0%
[1]; 6. Ileum, 8 hr
  % Dose recovered: 5.9%
[1]; 6. Ileum, 10 hr
  % Dose recovered: 0%
[1]; 7. Remaining Intestine, 2 hr
  % Dose recovered: 0%
[1]; 7. Remaining Intestine, 4 hr
  % Dose recovered: 0%
[1]; 7. Remaining Intestine, 6 hr
  % Dose recovered: 0%
[1]; 7. Remaining Intestine, 8 hr
  % Dose recovered: 0%
[1]; 7. Remaining Intestine, 10 hr
  % Dose recovered: 0%
[1]; time not stated
  % recovered from stomach following oral administration: more than 30%

## Nc1nc2c(ncn2COCCO)c(=O)[nH]1 [Acyclovir]
[2]
  Area under plasma concentration profile (AUC): 3307.5 ng·h/mL
  Time to maximum plasma concentration (tmax): 1.4 h
[3]
  bioavailability: 10-20%
[4]
  AUC: 282 ± 28 ng·h/mL
[4]; 5 mg/kg
  Cmax: 53.1 ± 6.8 ng/mL
  MRT: 5.4 ± 0.5 h
  bioavailability: 100%
[5]
  % drug released in first 1 hr: 95.3±4.1%
[6]
  % Hemolysis: 10.2 ± 1.4%

## Cn1c(=O)c2[nH]cnc2n(C)c1=O [theophylline]
[3]
  bioavailability: 100%
